Reference: ChEMBL document CHEMBL1201862, “PubChem BioAssay data set” (2004)
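The compound was tested at five concentrations on cells cultured in 96-well plates, with a 48-hour exposure period. At the GI50, growth is halved.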 The source made the active and inactive calls. Cut-off read from the data, not from the text of the source: active = GI50 up to about 1.1 µM and inactive = higher.

Key:
Assay in all cases: growth of human tumour cells (NCI), 48 h
786-0 = system: 786-0
CCRF-CEM = system: CCRF-CEM
DU-145 = system: DU-145
HCT-116 = system: HCT-116
HT-29 = system: HT-29
LOX IMVI = system: LOX IMVI
M14 = system: M14
Malme-3M = system: Malme-3M
NCI-H23 = system: NCI-H23
NCI-H460 = system: NCI-H460
OVCAR-4 = system: OVCAR-4
OVCAR-8 = system: OVCAR-8
SF-295 = system: SF-295
SK-MEL-28 = system: SK-MEL-28
SK-MEL-2 = system: SK-MEL-2
SK-OV-3 = system: SK-OV-3
SR = system: SR
T47D = system: T47D
TK-10 = system: TK-10
U-251 = system: U-251

SMILES	GI50 (786-0)	GI50 (CCRF-CEM)	GI50 (DU-145)	GI50 (HCT-116)	GI50 (HT-29)	GI50 (LOX IMVI)	GI50 (M14)	GI50 (Malme-3M)	GI50 (NCI-H23)	GI50 (NCI-H460)	GI50 (OVCAR-4)	GI50 (OVCAR-8)	GI50 (SF-295)	GI50 (SK-MEL-28)	GI50 (SK-MEL-2)	GI50 (SK-OV-3)	GI50 (SR)	GI50 (T47D)	GI50 (TK-10)	GI50 (U-251)
NC1=C(Cl)C(=O)c2ccccc2C1=O	7.4 µM (inactive)	5.15 µM (inactive)	1.87 µM (inactive)	3.77 µM (inactive)	4.99 µM (inactive)	2.28 µM (inactive)	0.893 µM (active)	1.38 µM (inactive)	1.77 µM (inactive)	3.43 µM (inactive)	7.08 µM (inactive)	8.34 µM (inactive)	6.87 µM (inactive)	4.67 µM (inactive)	7.08 µM (inactive)	2.52 µM (inactive)	4.32 µM (inactive)	2.87 µM (inactive)	22.2 µM (inactive)	4.34 µM (inactive)
COc1cc(OC)c2c(O)c3c(cc2c1)CC(C)(C)CC3=O	> 67.3 µM (inactive)	> 63.1 µM (inactive)	> 100 µM (inactive)	> 100 µM (inactive)	5.96 µM (inactive)	> 100 µM (inactive)	> 100 µM (inactive)	48.5 µM (inactive)	> 100 µM (inactive)	> 100 µM (inactive)	32.1 µM (inactive)	> 100 µM (inactive)	> 72.6 µM (inactive)	60.7 µM (inactive)	> 100 µM (inactive)	> 100 µM (inactive)	> 26.7 µM (inactive)	> 100 µM (inactive)	> 100 µM (inactive)	56.5 µM (inactive)
CCNC(=S)N/N=C/c1cc(OC)ccc1O	67.1 µM (inactive)	66.5 µM (inactive)	> 100 µM (inactive)	85.5 µM (inactive)	> 100 µM (inactive)	99.3 µM (inactive)	> 100 µM (inactive)	> 100 µM (inactive)	> 100 µM (inactive)	35.2 µM (inactive)	33.7 µM (inactive)	> 100 µM (inactive)	70.3 µM (inactive)	> 100 µM (inactive)	> 100 µM (inactive)	> 100 µM (inactive)	69.5 µM (inactive)	24.3 µM (inactive)	> 100 µM (inactive)	61.4 µM (inactive)
N#CS/C(C(Cl)=C(Cl)Cl)=C(/Cl)[N+](=O)[O-]	1.68 µM (inactive)	0.284 µM (active)	13.8 µM (inactive)	1.5 µM (inactive)	1.9 µM (inactive)	0.904 µM (active)	1.31 µM (inactive)	1.58 µM (inactive)	2.7 µM (inactive)	13.7 µM (inactive)	1.95 µM (inactive)	1.75 µM (inactive)	22.2 µM (inactive)	1.76 µM (inactive)	4.52 µM (inactive)	17 µM (inactive)	0.778 µM (active)	1.99 µM (inactive)	2.23 µM (inactive)	14.1 µM (inactive)
CC(O)C1(O)C(O)CC(OC2c3cc4c(c(O)c3[C@@H]3C[C@@]2(C)OC32C=c3cc[nH]c3=N2)C(=O)c2cccc(O)c2C4=O)OC1C (stereo not given in full)	1.04 µM (active)	0.34 µM (active)	1.15 µM (inactive)	0.789 µM (active)	0.644 µM (active)	0.555 µM (active)	1.34 µM (inactive)	0.938 µM (active)	1.53 µM (inactive)	0.401 µM (active)	2.38 µM (inactive)	0.959 µM (active)	1.87 µM (inactive)	1.7 µM (inactive)	1.6 µM (inactive)	1.75 µM (inactive)	0.287 µM (active)	3.1 µM (inactive)	1.71 µM (inactive)	1.53 µM (inactive)
